# Patent publication US7094909B2, “HIV protease inhibitors, compositions containing the same, their pharmaceutical uses and materials for their synthesis” (priority 2001, dated 2006)
# Biological target: T1, HIV-1 protease (Q7S mutant form) (Human immunodeficiency virus type 1 group M subtype B, UniProt P04585, Q495S)
# T1 construct: made in house
# Test: HIV-1 Protease RET assay
# Assay type: biochemical
# Conditions: Ki, unit inferred
# Experimental: Ki's for the inhibitors of HIV-1 protease were determined using a resonance energy transfer (RET) assay. […] This enzyme is first partially purified as inclusion bodies from cell lysate. It is then solublized in 8M urea and passed through a Q-Sepharose column (Pharmacia) for further purification. To refold this protein, samples containing Q7S is dialyzed into 50 mM sodium phosphate pH 7.0, 50 mM NaCl, 10 mM DTT, and 10% glycerol.
# The commercially available peptide substrate (Molecular Probes Cat. # H-2930) RE(EDANS)SQNYPIVQK(DABCYL)R is used to assess activity and Ki's. This peptide is cleaved quantitatively by HIV-1 Pr at the Tyr-Pro bond. The EDANS fluorophore absorbs at 340 nm and emits at 490 nm. The reaction is carried out in a 96 well plate in a total volume of 100 µL and is run for 12 minutes at 37 C under steady-state conditions with 5 µM substrate and 2 nM active dimer enzyme concentration. The literature value Km for this substrate and enzyme is 103+/−8 µM (See Matayoshi, et al., “Novel Fluorogenic Substrates for Assaying Retroviral Proteases by Resonance Energy Transfer,” Science 247, 954 (1990)). The buffer for this reaction is 0.1M sodium acetate pH 4.8, 1M NaCl, 1 mM EDTA, 5 mM dithiothreitol, 10% dimethyl sulfoxide and 1 mg/ml bovine serum albumin. Inhibition curves are fit using the Morrison tight binding equation.
row,SMILES,Ki [nM]
1,Cc1ccccc1CNC(=O)[C@H]1N(C(=O)[C@@H](O)[C@H](Cc2ccccc2)NC(=O)Oc2ccc(Cl)cc2)CSC1(C)C,468
2,Cc1ccccc1CNC(=O)[C@H]1N(C(=O)[C@@H](O)[C@H](Cc2ccccc2)NC(=O)Oc2ccccc2)CSC1(C)C,368
3,Cc1ccccc1CNC(=O)[C@H]1N(C(=O)[C@@H](O)[C@H](Cc2ccccc2)NS(=O)(=O)c2ccccc2)CSC1(C)C,152
4,CC1(C)SCN(C(=O)[C@@H](O)[C@H](Cc2ccccc2)NC(=O)[C@@H]2CCCO2)[C@@H]1C(=O)NC[C@H]1CCCO1,30
5,CC1(C)SCN(C(=O)[C@@H](O)[C@H](Cc2ccccc2)NC(=O)c2cccc3c2CCN3)[C@@H]1C(=O)NCc1cccs1,6.8
6,CC1(C)SCN(C(=O)[C@@H](O)[C@H](Cc2ccccc2)NC(=O)CSc2nc[nH]n2)[C@@H]1C(=O)NCc1cccs1,13.9
7,CC(C)(C)OC(=O)N[C@@H](Cc1ccccc1)[C@H](O)C(=O)N1CSC(C)(C)[C@H]1C(=O)NCc1ccccc1,21
8,Cc1ccccc1CNC(=O)[C@H]1N(C(=O)[C@@H](O)[C@H](Cc2ccccc2)NC(=O)COc2cccc3ncccc23)CSC1(C)C,14.2
9,Cc1ccccc1CNC(=O)[C@H]1N(C(=O)[C@@H](O)[C@H](Cc2ccccc2)NC(=O)COc2cccc3cnccc23)CSC1(C)C,21
10,CC(C)(C)OC(=O)N[C@@H](Cc1ccccc1)[C@H](O)C(=O)N1CSC(C)(C)C1C(=O)NCc1ccccc1Cl (stereo partly drawn),20
11,CC(C)(C)OC(=O)N[C@@H](Cc1ccccc1)[C@H](O)C(=O)N1CSC(C)(C)C1C(=O)NCc1c(F)cccc1F (stereo partly drawn),54
12,COc1ccc(CNC(=O)C2N(C(=O)[C@@H](O)[C@H](Cc3ccccc3)NC(=O)OC(C)(C)C)CSC2(C)C)cc1 (stereo partly drawn),25
13,Cc1ccccc1CNC(=O)[C@H]1N(C(=O)[C@@H](O)[C@H](Cc2ccccc2)NC(=O)COc2cccnc2Cl)CSC1(C)C,7.6
14,Cc1ccccc1CNC(=O)[C@H]1N(C(=O)[C@@H](O)[C@H](Cc2ccccc2)NC(=O)COc2cccnc2C)CSC1(C)C,17
15,COc1ccc(CNC(=O)N[C@@H](Cc2ccccc2)[C@H](O)C(=O)N2CSC(C)(C)C2C(=O)NCc2ccc(OC)cc2)cc1 (stereo partly drawn),7.8
16,COc1cccc(CNC(=O)[C@H]2N(C(=O)[C@@H](O)[C@H](Cc3ccccc3)NC(=O)C=C(C)C)CSC2(C)C)c1,125
17,CC(C)=CC(=O)N[C@@H](Cc1ccccc1)[C@H](O)C(=O)N1CSC(C)(C)[C@H]1C(=O)NCc1ccccc1C,6.1
18,CCc1cccc(CNC(=O)[C@H]2N(C(=O)[C@@H](O)[C@H](Cc3ccccc3)NC(=O)NCc3ccc(OC)cc3)CSC2(C)C)c1,59
19,C#CCOC(=O)N[C@@H](Cc1ccccc1)[C@H](O)C(=O)N1CSC(C)(C)[C@H]1C(=O)NCc1cccc(CC)c1,3.8
20,COc1cccc(CNC(=O)[C@H]2N(C(=O)[C@@H](O)[C@H](Cc3ccccc3)NC(=O)OC(C)(C)C)CSC2(C)C)c1,68
21,Cc1ccccc1CNC(=O)[C@H]1N(C(=O)[C@@H](O)[C@H](Cc2ccccc2)NC(=O)COc2cc(N(C)C)ccc2C)CSC1(C)C,8.1
22,Cc1ccccc1CNC(=O)C1N(C(=O)[C@@H](O)C(Cc2ccccc2)NC(=O)C(C)(C)C)CSC1(C)C (stereo partly drawn),47
23,C/C(=C/c1ccccc1)C(=O)N[C@@H](Cc1ccccc1)[C@H](O)C(=O)N1CSC(C)(C)[C@H]1C(=O)NCc1ccccc1C,5
24,Cc1ccccc1CNC(=O)C1N(C(=O)[C@@H](O)C(Cc2ccccc2)NC(=O)/C=C/c2c(Cl)cccc2Cl)CSC1(C)C (stereo partly drawn),11.9
25,Cc1ccccc1CNC(=O)C1N(C(=O)[C@@H](O)[C@H](Cc2ccccc2)NC(=O)c2ccc3ccncc3c2)CSC1(C)C (stereo partly drawn),3.4
26,Cc1ccccc1CNC(=O)C1N(C(=O)[C@@H](O)C(Cc2ccccc2)NC(=O)c2cnc3ccccc3c2)CSC1(C)C (stereo partly drawn),18.1

row,SMILES,Ki [nM]
1,Cc1ccccc1CCC(=O)C1N(C(=O)[C@@H](O)C(Cc2ccccc2)NC(=O)C2CCC2)CSC1(C)C (stereo partly drawn),4.4
2,Cc1ccccc1CNC(=O)[C@H]1N(C(=O)[C@@H](O)[C@H](Cc2ccccc2)NC(=O)CNc2ccc(F)cc2)CSC1(C)C,6
3,Cc1ccccc1CCC(=O)C1N(C(=O)[C@@H](O)C(Cc2ccccc2)NC(=O)NCc2ccc(Cl)cc2)CSC1(C)C (stereo partly drawn),8.2
4,C#CC(C)OC(=O)N[C@@H](Cc1ccccc1)[C@H](O)C(=O)N1CSC(C)(C)[C@H]1C(=O)NCc1ccccc1C (stereo partly drawn),5.4
5,Cc1ccccc1CNC(=O)C1N(C(=O)[C@@H](O)C(Cc2ccccc2)NC(=O)OCc2cccnc2)CSC1(C)C (stereo partly drawn),27
6,C=CC(CC)OC(=O)N[C@@H](Cc1ccccc1)[C@H](O)C(=O)N1CSC(C)(C)[C@H]1C(=O)NCc1ccccc1C (stereo partly drawn),92
7,CC#CC(C)OC(=O)NC(Cc1ccccc1)[C@H](O)C(=O)N1CSC(C)(C)[C@H]1C(=O)NCc1ccccc1C (stereo partly drawn),29
8,Cc1c(O)cccc1C(=O)N[C@@H](Cc1ccccc1)[C@H](O)C(=O)N1CSC(C)(C)[C@H]1C(=O)NCc1cc(Cl)nc(Cl)c1,47
9,Cc1ccccc1CNC(=O)[C@H]1N(C(=O)[C@@H](O)[C@H](Cc2ccccc2)NC(=O)/C=C/c2c(C)cccc2C)CSC1(C)C,99
10,Cc1ccccc1CNC(=O)[C@H]1N(C(=O)[C@@H](O)[C@H](Cc2ccccc2)NC(=O)C2CCNCC2)CSC1(C)C,45
11,Cc1ccccc1CNC(=O)[C@H]1N(C(=O)[C@@H](O)[C@H](Cc2ccccc2)NC(=O)CC(C)N)CSC1(C)C (stereo partly drawn),108
12,Cc1ccccc1CNC(=O)[C@H]1N(C(=O)[C@@H](O)[C@H](Cc2ccccc2)NC(=O)CC(C)NC(=O)OC(C)(C)C)CSC1(C)C (stereo partly drawn),122
13,Cc1ccccc1CNC(=O)[C@H]1N(C(=O)[C@@H](O)[C@H](Cc2ccccc2)NC(=O)C2=CCCCC2)CSC1(C)C,4.7
14,C/C=C(/C)C(=O)N[C@@H](Cc1ccccc1)[C@H](O)C(=O)N1CSC(C)(C)[C@H]1C(=O)NCc1ccccc1C,7.6
15,Cc1ccccc1CNC(=O)[C@H]1N(C(=O)[C@@H](O)[C@H](Cc2ccccc2)NC(=O)Cc2c(F)cccc2F)CSC1(C)C,72
16,Cc1ccccc1CNC(=O)[C@H]1N(C(=O)[C@@H](O)[C@H](Cc2ccccc2)NC(=O)/C=C/c2ccco2)CSC1(C)C,60
17,CCCNC(=O)C1CC(F)(F)CN1C(=O)[C@@H](O)[C@H](Cc1ccccc1)NC(=O)c1cccc(OC(C)=O)c1C (stereo partly drawn),85
18,Cc1ccccc1CNC(=O)[C@H]1N(C(=O)[C@@H](O)[C@H](Cc2ccccc2)NC(=O)CNC(=O)OC(C)(C)C)CSC1(C)C,88
19,Cc1ccccc1CNC(=O)[C@H]1N(C(=O)[C@@H](O)[C@H](Cc2ccccc2)NC(=O)/C=C/c2cccnc2)CSC1(C)C,9.9
20,Cc1ccccc1CNC(=O)[C@H]1N(C(=O)[C@@H](O)[C@H](Cc2ccccc2)NC(=O)C(C)CNC(=O)OC(C)(C)C)CSC1(C)C (stereo partly drawn),52
21,Cc1ccccc1CNC(=O)[C@@H]1N(C(=O)[C@@H](O)[C@H](Cc2ccccc2)NC(=O)c2cccc(O)c2C)CSC12CCC2,30
22,Cc1c(C(=O)N[C@@H](Cc2ccccc2)[C@H](O)C(=O)N2CSC(C)(C)[C@H]2C(=O)N[C@@H]2C=CCCC2)ccc(F)c1O,17.3
23,Cc1c(O)cccc1C(=O)N[C@@H](Cc1ccccc1)[C@H](O)C(=O)C1CCC2(CCCC2)[C@@H]1C(=O)NC1=CCCCC1 (stereo partly drawn),53
24,Cc1c(O)cccc1C(=O)N[C@@H](Cc1ccccc1)[C@H](O)C(=O)N1CSC2(CCC2)[C@@H]1C(=O)N[C@@H]1C=CCCC1,12.9
25,Cc1c(O)cccc1C(=O)N[C@@H](Cc1ccccc1)[C@H](O)C(=O)N1CSC(C)(C)C1C(=O)NCCc1ccccn1 (stereo partly drawn),134
